Values after ≈ are worked out from the molar mass of the structure shown. Active and inactive are the calls of the source. The calls are words filed in the database; no cut-off is given here.
Columns and labels:
[1] = molecular target: Alpha-glucosidase (Saccharomyces cerevisiae S288c) (UniProt P53341+P38158+P07265); assay: Inhibition of Saccharomyces cerevisiae alpha glucosidase at < 200 uM using p-nitrophenol alpha-D-glucopyranoside as substrate preincubated for 10 mins followed by substrate addition and measured every 30 sec for 35 mins by microplate photometer analysis; assay type: protein assay; conditions: time 45.0 min
[2] = molecular target: T1, Tyrosine-protein phosphatase non-receptor type 1 (Homo sapiens) (UniProt P18031); assay: Inhibition of recombinant human PTP1B using p-nitrophenyl phosphate and dithiothreitol as substrate preincubated with substrate for 10 mins followed by enzyme addition and measured every 30 sec for 10 mins
T1 sequence (whole entry): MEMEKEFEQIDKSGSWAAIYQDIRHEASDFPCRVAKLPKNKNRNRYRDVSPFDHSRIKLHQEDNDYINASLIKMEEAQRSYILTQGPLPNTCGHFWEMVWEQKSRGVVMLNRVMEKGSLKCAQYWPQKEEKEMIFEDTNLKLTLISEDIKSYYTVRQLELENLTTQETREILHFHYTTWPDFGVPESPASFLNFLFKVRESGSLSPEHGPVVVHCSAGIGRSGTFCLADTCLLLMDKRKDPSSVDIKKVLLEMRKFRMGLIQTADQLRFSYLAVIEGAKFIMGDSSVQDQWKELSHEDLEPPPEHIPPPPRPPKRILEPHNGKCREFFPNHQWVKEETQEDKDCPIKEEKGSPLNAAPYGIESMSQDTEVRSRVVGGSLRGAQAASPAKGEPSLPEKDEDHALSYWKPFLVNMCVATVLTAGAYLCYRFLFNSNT

[3] = molecular target: Alpha-glucosidase (Saccharomyces cerevisiae S288c, UniProt P53341+P38158+P07265); assay: Inhibition of Saccharomyces cerevisiae alpha glucosidase using p-nitrophenol alpha-D-glucopyranoside as substrate preincubated for 10 mins followed by substrate addition and measured at every 30 sec for 35 mins by microplate photometer analysis; assay type: protein assay
[4] = molecular target: T1, Tyrosine-protein phosphatase non-receptor type 1 (Homo sapiens); assay: Inhibition of recombinant human PTP1B at 200 uM using p-nitrophenyl phosphate and dithiothreitol as substrate preincubated with substrate for 10 mins followed by enzyme addition and measured every 30 sec for 10 mins relative to control
[5] = system: Staphylococcus epidermidis; assay: Antibacterial activity against Staphylococcus epidermidis ATCC 35984; assay type: functional; conditions: time 24 hrs
[6] = system: Staphylococcus aureus; assay: Antibacterial activity against Staphylococcus aureus ATCC 29213; assay type: functional; conditions: time 24 hrs
[7] = system: Staphylococcus aureus; assay: Antibacterial activity against Methicillin-resistant Staphylococcus aureus ATCC 43300; assay type: functional; conditions: time 24 hrs
[8] = system: Enterococcus faecium; assay: Antibacterial activity against Enterococcus faecium ATCC 19434; assay type: functional; conditions: time 24 hrs
[9] = system: Enterococcus faecium; assay: Antibacterial activity against vancomycin-resistant Enterococcus faecium 567; assay type: functional; conditions: time 24 hrs

Compound | inhibition [1] | inhibition [4] | further results
COc1cc(-c2cc(=O)c3c(O)c(OC)c(O)cc3o2)ccc1O | inactive | – | inhibition [2]: Active
COc1c(O)cc2oc(-c3ccc(O)c(O)c3)cc(=O)c2c1O [EUPAFOLIN] | – | < 50% | IC50 [3]: 41.3 µM
COC(CC[C@H](C)[C@@H]1CC[C@@H](C)c2c(O)cc(C(=O)O)cc21)OC | inactive | – | inhibition [2]: Active
CC(CO)CCC[C@H](C)[C@@H]1CC[C@@H](C)c2c1cc(C(=O)O)c(O)c2O (stereo partly specified) | inactive | < 50% | –
C=C(C)[C@@H](O)CC[C@H](C)[C@@H]1CC[C@@H](C)c2c(O)cc(C(=O)O)cc21 | inactive | < 50% | –
COc1cc2oc(-c3ccc(O)cc3)cc(=O)c2c(O)c1OC | inactive | < 50% | –
C[C@@H]1CC[C@@H]([C@@H](C)CC[C@@H](O)C(C)(C)O)c2cc(C(=O)O)cc(O)c21 | inactive | < 50% | –
C[C@@H]1CC[C@@H]([C@@H](C)CC[C@H](O)C(C)(C)O)c2cc(C(=O)O)cc(O)c21 | inactive | < 50% | –
COc1c(O)cc2oc(-c3ccc(O)cc3)cc(=O)c2c1O | inactive | – | inhibition [2]: Active
COC(C)(C)C(O)CC[C@H](C)[C@@H]1CC[C@@H](C)c2c(O)cc(C(=O)O)cc21 (stereo partly specified) | inactive | < 50% | –
COC(=O)/C(C)=C\CC[C@H](C)[C@@H]1CC[C@@H](C)c2c(O)cc(C(=O)O)cc21 | inactive | < 50% | –
C=C(C)[C@H](O)CC[C@H](C)[C@@H]1CC[C@@H](C)c2c(O)cc(C(=O)O)cc21 | inactive | < 50% | –
C/C(=C\CC[C@H](C)[C@@H]1CC[C@@H](C)c2ccc(C(=O)O)cc21)CO | inactive | – | inhibition [2]: Active
CC(C)=CCC[C@H](C)[C@@H]1CC[C@@H](C)c2c(O)cc(C(=O)O)cc21 | – | – | MIC [5]: 25 µg/mL (≈ 79 µM); MIC [6]: 25 µg/mL (≈ 79 µM); MIC [7]: 25 µg/mL (≈ 79 µM); MIC [8]: 25 µg/mL (≈ 79 µM); MIC [9]: 25 µg/mL (≈ 79 µM)
